Experimental data as given in ChEMBL document CHEMBL3885881, “DrugMatrix”.

Species on record: Rattus norvegicus
Assay: DrugMatrix - Regimen: Daily Repeat
Format: toxicity, organism-based, Sprague-Dawley
Set-up: regimen Daily Repeat, gender Male, age 6-8 weeks
Conditions: in vivo, po, route oral GAVAGE, vehicle 100 % WATER; for ABSOLUTE BASOPHIL / ABSOLUTE EOSINOPHIL / ABSOLUTE LYMPHOCYTE / ABSOLUTE MONOCYTE / ABSOLUTE SEGMENTED NEUTROPHIL / BASOPHIL / EOSINOPHIL / ERYTHROCYTE COUNT / HEMATOCRIT / HEMOGLOBIN / LEUKOCYTE COUNT / LYMPHOCYTE / MEAN CORPUSCULAR HEMOGLOBIN / MEAN CORPUSCULAR HEMOGLOBIN CONCENTRATION / MEAN CORPUSCULAR VOLUME / MONOCYTE / NEUTROPHIL / NUCLEATED RED BLOOD CELLS / PLATELET COUNT: tissue Blood; for ALANINE AMINOTRANSFERASE / ALBUMIN / ALKALINE PHOSPHATASE / ASPARTATE AMINOTRANSFERASE / BLOOD UREA NITROGEN / CARBON DIOXIDE / CHLORIDE / CHOLESTEROL / CREATINE PHOSPHOKINASE / CREATININE / GLUCOSE / LACTATE DEHYDROGENASE / LIPASE / PHOSPHORUS / POTASSIUM / SODIUM / TOTAL BILIRUBIN / TOTAL PROTEIN / URIC ACID: tissue Plasma
[1] = 1 mg/kg, 120 h, dose level Low, time 5 day
[2] = 175 mg/kg, 72 h, dose level High, time 3 day
[3] = 175 mg/kg, 120 h, dose level High, time 5 day

CN1C2CCCC1CC(NC(=O)c1nn(C)c3ccccc13)C2 (centres undefined) [GRANISETRON]
ABSOLUTE BASOPHIL [1]: 0 CELLS/uL | ABSOLUTE EOSINOPHIL [1]: 0 CELLS/uL | ABSOLUTE LYMPHOCYTE [1]: 8153 CELLS/uL | ABSOLUTE MONOCYTE [1]: 97.67 CELLS/uL | ABSOLUTE SEGMENTED NEUTROPHIL [1]: 549.33 CELLS/uL | BASOPHIL [1]: 0% | EOSINOPHIL [1]: 0% | ERYTHROCYTE COUNT [1]: 5.09 x10E6/uL | HEMATOCRIT [1]: 31.63% | HEMOGLOBIN [1]: 12.5 G/DL | LEUKOCYTE COUNT [1]: 8.8 x10E3/uL | LYMPHOCYTE [1]: 92.67% | MEAN CORPUSCULAR HEMOGLOBIN [1]: 24.53 pg | MEAN CORPUSCULAR HEMOGLOBIN CONCENTRATION [1]: 39.6 G/DL | MEAN CORPUSCULAR VOLUME [1]: 62.03 fL | MONOCYTE [1]: 1% | NEUTROPHIL [1]: 6.33% | NUCLEATED RED BLOOD CELLS [1]: 0.67 /100WBC | PLATELET COUNT [1]: 832 x10E3/uL | ALANINE AMINOTRANSFERASE [1]: 51 u/L | ALBUMIN [1]: 4.2 G/DL | ALKALINE PHOSPHATASE [1]: 374 u/L | ASPARTATE AMINOTRANSFERASE [1]: 84.33 u/L | BLOOD UREA NITROGEN [1]: 16 mg/dL | CARBON DIOXIDE [1]: 31 mmol/L | CHLORIDE [1]: 101.67 MEQ/L | CHOLESTEROL [1]: 74.33 mg/dL | CREATINE PHOSPHOKINASE [1]: 215.67 u/L | CREATININE [1]: 0.16 mg/dL | GLUCOSE [1]: 149.33 mg/dL | LACTATE DEHYDROGENASE [1]: 154 u/L | LIPASE [1]: 9 u/L | PHOSPHORUS [1]: 10.23 mg/dL | POTASSIUM [1]: 5.82 MEQ/L | SODIUM [1]: 145 MEQ/L | TOTAL BILIRUBIN [1]: 0.23 mg/dL | TOTAL PROTEIN [1]: 6.23 G/DL | URIC ACID [1]: 0.7 mg/dL | ABSOLUTE BASOPHIL [2]: 0 CELLS/uL | ABSOLUTE EOSINOPHIL [2]: 0 CELLS/uL | ABSOLUTE LYMPHOCYTE [2]: 10622.67 CELLS/uL | ABSOLUTE MONOCYTE [2]: 19.67 CELLS/uL | ABSOLUTE SEGMENTED NEUTROPHIL [2]: 557.67 CELLS/uL | BASOPHIL [2]: 0% | EOSINOPHIL [2]: 0% | ERYTHROCYTE COUNT [2]: 5.65 x10E6/uL | HEMATOCRIT [2]: 35.33% | HEMOGLOBIN [2]: 13.77 G/DL | LEUKOCYTE COUNT [2]: 11.2 x10E3/uL | LYMPHOCYTE [2]: 93.67% | MEAN CORPUSCULAR HEMOGLOBIN [2]: 24.43 pg | MEAN CORPUSCULAR HEMOGLOBIN CONCENTRATION [2]: 38.93 G/DL | MEAN CORPUSCULAR VOLUME [2]: 62.63 fL | MONOCYTE [2]: 0.33% | NEUTROPHIL [2]: 6% | NUCLEATED RED BLOOD CELLS [2]: 0 /100WBC | PLATELET COUNT [2]: 1057.67 x10E3/uL | ALANINE AMINOTRANSFERASE [2]: 72.67 u/L | ALBUMIN [2]: 4 G/DL | ALKALINE PHOSPHATASE [2]: 502.33 u/L | ASPARTATE AMINOTRANSFERASE [2]: 95 u/L | BLOOD UREA NITROGEN [2]: 13 mg/dL | CARBON DIOXIDE [2]: 33 mmol/L | CHLORIDE [2]: 100 MEQ/L | CHOLESTEROL [2]: 75.67 mg/dL | CREATINE PHOSPHOKINASE [2]: 557.67 u/L | CREATININE [2]: 0.12 mg/dL | GLUCOSE [2]: 149.33 mg/dL | LACTATE DEHYDROGENASE [2]: 186 u/L | LIPASE [2]: 10 u/L | PHOSPHORUS [2]: 11.47 mg/dL | POTASSIUM [2]: 5.72 MEQ/L | SODIUM [2]: 145.1 MEQ/L | TOTAL BILIRUBIN [2]: 0.17 mg/dL | TOTAL PROTEIN [2]: 5.83 G/DL | URIC ACID [2]: 0.5 mg/dL | ABSOLUTE BASOPHIL [3]: 0 CELLS/uL | ABSOLUTE EOSINOPHIL [3]: 0 CELLS/uL | ABSOLUTE LYMPHOCYTE [3]: 7981.33 CELLS/uL | ABSOLUTE MONOCYTE [3]: 176.67 CELLS/uL | ABSOLUTE SEGMENTED NEUTROPHIL [3]: 675.33 CELLS/uL | BASOPHIL [3]: 0% | EOSINOPHIL [3]: 0% | ERYTHROCYTE COUNT [3]: 5.68 x10E6/uL | HEMATOCRIT [3]: 35.93% | HEMOGLOBIN [3]: 13.87 G/DL | LEUKOCYTE COUNT [3]: 8.83 x10E3/uL | LYMPHOCYTE [3]: 90% | MEAN CORPUSCULAR HEMOGLOBIN [3]: 24.47 pg | MEAN CORPUSCULAR HEMOGLOBIN CONCENTRATION [3]: 38.67 G/DL | MEAN CORPUSCULAR VOLUME [3]: 63.37 fL | MONOCYTE [3]: 2% | NEUTROPHIL [3]: 8% | NUCLEATED RED BLOOD CELLS [3]: 0 /100WBC | PLATELET COUNT [3]: 1308.33 x10E3/uL | ALANINE AMINOTRANSFERASE [3]: 86.67 u/L | ALBUMIN [3]: 4.03 G/DL | ALKALINE PHOSPHATASE [3]: 415.33 u/L | ASPARTATE AMINOTRANSFERASE [3]: 102 u/L | BLOOD UREA NITROGEN [3]: 16.67 mg/dL | CARBON DIOXIDE [3]: 31.33 mmol/L | CHLORIDE [3]: 100.33 MEQ/L | CHOLESTEROL [3]: 67.33 mg/dL | CREATINE PHOSPHOKINASE [3]: 224.33 u/L | CREATININE [3]: 0.19 mg/dL | GLUCOSE [3]: 146.33 mg/dL | LACTATE DEHYDROGENASE [3]: 136.33 u/L | LIPASE [3]: 11.67 u/L | PHOSPHORUS [3]: 11.97 mg/dL | POTASSIUM [3]: 5.51 MEQ/L | SODIUM [3]: 146.57 MEQ/L | TOTAL BILIRUBIN [3]: 0.17 mg/dL | TOTAL PROTEIN [3]: 5.6 G/DL | URIC ACID [3]: 0.57 mg/dL
